# Read-outs that look alike come from different tables or passages of the source.
# Molecular target: T1, KRas G12V (Homo sapiens, UniProt P01116, G12V)
# T1 construct: Biotinylated KRas G12V (aa 1-169) loaded with GDP nucleotide; biotin (biotinylated)
# Test: SOS1-Catalyzed Nucleotide Exchange Assay, KRas G12V (Method 2)
# Type: biochemical
# Conditions: 5 nM KRas G12V (aa 1-169, GDP-loaded), 50 nM SOS1
# Protocol: KRas G12V [Method 2]: Compounds were pre-dispensed via Echo liquid handling (acoustic, touch-free) to generate assay ready plates (ARP). More precisely, a 10-point concentration response curve for each compound was prepared with appropriate top concentration (1 μM, 10 μM, 100 μM). Biotinylated KRas G12V (aa 1-169) loaded with GDP nucleotide and Streptavidin-Europium (SA-EU, Columbia Biosciences) were preincubated in assay buffer (20 mM HEPES pH 7.4, 150 mM NaCl, 5 mM MgCl2, 1 mM DTT, 0.01% Brij-35, 0.3 mg/mL BSA) on ice for 30 min. Separately SOS1 (aa 546-1049) and EDA-GTP-DY647P1 (Jena Bioscience) were preincubated in assay buffer on ice for 30 min. After 30 minutes of incubation for the assay components, 5 μL buffer and 5 μL of KRas G12V-SA-Eu were added to each well of the ARP. After a further 30 min, 5 μL of SOS1-EDA-GTP-D467P1 was added to start the nucleotide exchange reaction. Final concentration in the assay were 5 nM KRas G12V, 50 nM SOS1 (aa 564-1049). The reaction was allowed to proceed for 60-90 minutes after which the plate was read on a plate reader. After normalization of the raw data, the data was fit to a four-parameter logistic curve.
# [1] = Method 2, B, read-out: KRas G12V IC50 (nM) (Method 2, B)
# [2] = Method 2, A, read-out: KRas G12V IC50 (nM) (Method 2, A)
# T1 sequence (P01116 1-169 G12V): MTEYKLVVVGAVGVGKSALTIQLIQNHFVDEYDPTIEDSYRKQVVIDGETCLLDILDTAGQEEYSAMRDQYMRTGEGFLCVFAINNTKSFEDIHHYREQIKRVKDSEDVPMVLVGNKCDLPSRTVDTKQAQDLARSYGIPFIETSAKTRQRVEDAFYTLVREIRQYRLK
SMILES,IC50 [1] [nM],IC50 [2] [nM]
"Nc1cc(Cl)c2c(c1)-c1ncc3c(nc(OC[C@@]45CCCN4C[C@H](F)C5)nc3c1F)N1CCC(CCNC(=O)CCCC2)C1 (stereo partly drawn) [Compound 164a, 3^5-amino-3^3-chloro-2^8-fluoro-2^2-(((2R,7aS)-2-fluorotetrahydro-1H-pyrrolizin-7a(5H)-yl)methoxy)-9-aza-2(4,7)-pyrido[4,3-d]pyrimidina-1(1,3)-pyrrolidina-3(1,2)-benzenacycloundecaphan-8-one]",1000 to 10000,
"O=C1CCCCc2c(Cl)cc(O)cc2-c2ncc3c(nc(OC[C@@]45CCCN4C[C@H](F)C5)nc3c2F)N2CCCC(O)(CCN1)C2 (single isomer, unassigned) [Compound 140b]",≤ 100,≤ 100
"Nc1cc2c(cc1F)CCCCC(=O)NCCC1CCCN(C1)c1nc(OC[C@@]34CCCN3C[C@H](F)C4)nc3c(F)c-2ccc13 (stereo partly drawn) [Compound 163a, 3^5-amino-2^8,3^4-difluoro-2^2-(((2R,7aS)-2-fluorotetrahydro-1H-pyrrolizin-7a(5H)-yl)methoxy)-9-aza-2(4,7)-quinazolina-1(1,3)-piperidina-3(1,2)-benzenacycloundecaphan-8-one]",1000 to 10000,
"O=C1CCCc2c(F)ccc3cccc(c23)-c2ncc3c(nc(OC[C@@]45CCCN4C[C@H](F)C5)nc3c2F)N2CCCC(CCN1)C2 (stereo partly drawn) [Compound 170a, 2^8,3^7-difluoro-2^2-(((2R,7aS)-2-fluorotetrahydro-1H-pyrrolizin-7a(5H)-yl)methoxy)-8-aza-2(4,7)-pyrido[4,3-d]pyrimidina-1(1,3)-piperidina-3(1,8)-naphthalenacyclodecaphan-7-one]",≤ 100,
"Nc1cc(Cl)c2c(c1)-c1ccc3c(nc(OC[C@@]45CCCN4C[C@H](F)C5)nc3c1F)N1CCCC(CCNC(=O)CCCC2)C1 (stereo partly drawn) [Compound 165a, 3^5-amino-3^3-chloro-2^8-fluoro-2^2-(((2R,7aS)-2-fluorotetrahydro-1H-pyrrolizin-7a(5H)-yl)methoxy)-9-aza-2(4,7)-quinazolina-1(1,3)-piperidina-3(1,2)-benzenacycloundecaphan-8-one]",≤ 100,
"O=C1CCCc2c(F)ccc3cc(O)cc(c23)-c2ncc3c(nc(OC[C@@]45CCCN4C[C@H](F)C5)nc3c2F)N2CCCC(CCN1)C2 (stereo partly drawn) [Compound 118a, 2^8,3^7-difluoro-2^2-(((2R,7aS)-2-fluorotetrahydro-1H-pyrrolizin-7a(5H)-yl)methoxy)-3^3-hydroxy-8-aza-2(4,7)-pyrido[4,3-d]pyrimidina-1(1,3)-piperidina-3(1,8)-naphthalenacyclodecaphan-7-one]",≤ 100,
"Nc1ccc2c(c1F)-c1ncc3c(nc(OC[C@@]45CCCN4C[C@H](F)C5)nc3c1F)N1CCCC(CCNC(=O)CCCC2)C1 (stereo partly drawn) [Compound 160a, 3^5-amino-2^8,3^6-difluoro-2^2-(((2R,7aS)-2-fluorotetrahydro-1H-pyrrolizin-7a(5H)-yl)methoxy)-9-aza-2(4,7)-pyrido[4,3-d]pyrimidina-1(1,3)-piperidina-3(1,2)-benzenacycloundecaphan-8-one]",,10000 to 30000
"Nc1cc(Cl)c2c(c1)-c1ncc3c(nc(OC[C@@]45CCCN4C[C@H](F)C5)nc3c1F)N1CCOCC(CNC(=O)CCCC2)C1 (stereo partly drawn) [Compound 162a, 3^5-amino-3^3-chloro-2^8-fluoro-2^2-(((2R,7aS)-2-fluorotetrahydro-1H-pyrrolizin-7a(5H)-yl)methoxy)-9-aza-1(4,6)-oxazepana-2(4,7)-pyrido[4,3-d]pyrimidina-3(1,2)-benzenacyclodecaphan-8-one]",100 to 1000,
"Nc1ccc2c(c1)-c1ncc3c(nc(OC[C@@]45CCCN4C[C@H](F)C5)nc3c1F)N1CCCC(O)(CCNC(=O)CCCC2)C1 (stereo partly drawn) [Compound 157a, 3^5-amino-2^8-fluoro-2^2-(((2R,7aS)-2-fluorotetrahydro-1H-pyrrolizin-7a(5H)-yl)methoxy)-1^3-hydroxy-9-aza-2(4,7)-pyrido[4,3-d]pyrimidina-1(1,3)-piperidina-3(1,2)-benzenacycloundecaphan-8-one]",,1000 to 10000

# Further lines, results first:
IC50 [1] [nM],IC50 [2] [nM],SMILES
≤ 100,,"O=C1CCCc2c(F)ccc3cc(O)cc(c23)-c2ncc3c(nc(OC[C@@]45CCCN4C[C@H](F)C5)nc3c2F)N2CCOCC(CN1)C2 (stereo partly drawn) [Compound 173a, 2^8,3^7-difluoro-2^2-(((2R,7aS)-2-fluorotetrahydro-1H-pyrrolizin-7a(5H)-yl)methoxy)-3^3-hydroxy-8-aza-1(4,6)-oxazepana-2(4,7)-pyrido[4,3-d]pyrimidina-3(1,8)-naphthalenacyclononaphan-7-one]"
100 to 1000,,"CN1CCC[C@H]1CCOc1nc2c3cnc(c(F)c3n1)-c1cc(N)cc(Cl)c1CCCCC(=O)NCCC1CCCN2C1 (stereo partly drawn) [Compound 176a, 3^5-amino-3^3-chloro-2^8-fluoro-2^2-(2-((S)-1-methylpyrrolidin-2-yl)ethoxy)-9-aza-2(4,7)-pyrido[4,3-d]pyrimidina-1(1,3)-piperidina-3(1,2)-benzenacycloundecaphan-8-one]"
100 to 1000,,"CN1C[C@H](F)C[C@H]1COc1nc2c3cnc(c(F)c3n1)-c1cc(N)cc(Cl)c1CCCCC(=O)NCCC1CCCN2C1 (stereo partly drawn) [Compound 179a, 3^5-amino-3^3-chloro-2^8-fluoro-2^2-(((2S,4R)-4-fluoro-1-methylpyrrolidin-2-yl)methoxy)-9-aza-2(4,7)-pyrido[4,3-d]pyrimidina-1(1,3)-piperidina-3(1,2)-benzenacycloundecaphan-8-one]"
100 to 1000,,"Nc1cc2c(c(Cl)c1F)CCCCC(=O)NCCC1COCCN(C1)c1nc(OC[C@@]34CCCN3C[C@H](F)C4)nc3c(F)c-2ncc13 (stereo partly drawn) [Compound 185a, 3^5-amino-3^3-chloro-2^8,3^4-difluoro-2^2-(((2R,7aS)-2-fluorotetrahydro-1H-pyrrolizin-7a(5H)-yl)methoxy)-9-aza-1(4,6)-oxazepana-2(4,7)-pyrido[4,3-d]pyrimidina-3(1,2)-benzenacycloundecaphan-8-one]"
≤ 100,,"O=C1CCCCc2c(Cl)cc3[nH]ncc3c2-c2ccc3c(nc(OC[C@@]45CCCN4C[C@H](F)C5)nc3c2F)N2CCCC(O)(CCN1)C2 (stereo partly drawn) [Compound 199a, 1^6-chloro-2^8-fluoro-2^2-(((2R,7aS)-2-fluorotetrahydro-1H-pyrrolizin-7a(5H)-yl)methoxy)-3^3-hydroxy-1^1H-6-aza-2(7,4)-quinazolina-1(4,5)-indazola-3(1,3)-piperidinacycloundecaphan-7-one]"
≤ 100,,"O=C1CCCCc2c(Cl)cc3[nH]ncc3c2-c2ncc3c(nc(OC[C@@]45CCCN4C[C@H](F)C5)nc3c2F)N2CCCC(CCN1)C2 (stereo partly drawn) [Compound 196a, 1^6-chloro-2^8-fluoro-2^2-(((2R,7aS)-2-fluorotetrahydro-1H-pyrrolizin-7a(5H)-yl)methoxy)-1^1H-6-aza-2(7,4)-pyrido[4,3-d]pyrimidina-1(4,5)-indazola-3(1,3)-piperidinacycloundecaphan-7-one]"
≤ 100,100 to 1000,"O=C1CCCc2c(F)ccc3cccc(c23)-c2ccc3c(nc(OC[C@@]45CCCN4C[C@H](F)C5)nc3c2F)N2CCCC(CCN1)C2 (stereo partly drawn) [Compound 191a, 2^8,3^7-difluoro-2^2-(((2R,7aS)-2-fluorotetrahydro-1H-pyrrolizin-7a(5H)-yl)methoxy)-8-aza-2(4,7)-quinazolina-1(1,3)-piperidina-3(1,8)-naphthalenacyclodecaphan-7-one]"
≤ 100,≤ 100,"O=C1CCCc2c(F)ccc3cc(O)cc(c23)-c2ncc3c(nc(OC[C@@]45CCCN4C[C@H](F)C5)nc3c2F)N2CCOCC(CCN1)C2 (stereo partly drawn) [Compound 194a, 2^8,3^7-difluoro-2^2-(((2R,7aS)-2-fluorotetrahydro-1H-pyrrolizin-7a(5H)-yl)methoxy)-3^3-hydroxy-8-aza-1(4,6)-oxazepana-2(4,7)-pyrido[4,3-d]pyrimidina-3(1,8)-naphthalenacyclodecaphan-7-one]"
100 to 1000,,"CN1CCC[C@H]1COc1nc2c3cnc(c(F)c3n1)-c1cc(N)cc(Cl)c1CCCCC(=O)NCCC1CCCN2C1 (stereo partly drawn) [Compound 171a, 3^5-amino-3^3-chloro-2^8-fluoro-2^2-(((S)-1-methylpyrrolidin-2-yl)methoxy)-9-aza-2(4,7)-pyrido[4,3-d]pyrimidina-1(1,3)-piperidina-3(1,2)-benzenacycloundecaphan-8-one]"
100 to 1000,,"Nc1cc2c(c(Cl)c1F)CCCCC(=O)NCC1COCCN(C1)c1nc(OC[C@@]34CCCN3C[C@H](F)C4)nc3c(F)c-2c(F)cc13 (stereo partly drawn) [Compound 184a, 3^5-amino-3^3-chloro-2^6,2^8,3^4-trifluoro-2^2-(((2R,7aS)-2-fluorotetrahydro-1H-pyrrolizin-7a(5H)-yl)methoxy)-9-aza-1(4,6)-oxazepana-2(4,7)-quinazolina-3(1,2)-benzenacyclodecaphan-8-one]"
